Reference: US6984649B1, “Pyridine derivatives” (Bayer Aktiengesellschaft, priority 2000, dated 2006)
Counter-ions that a name gives are not always drawn.

These compounds were tested on A549 human lung epithelium cell line (assay: RANTES production in response to TNF-α from A549 cells). Conditions: Homo sapiens, A549, A549 cells, 100 ng/ml TNF-α, read-out: Cellular activity grade (A549) (Cellular IC50).
Type: cell-based
Outline: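 Cells (4×10^4/well) in D-MEM/10% FCS preincubated 1 h at 37 °C with compound in 1% DMSO, then stimulated with 100 ng/ml TNF-α for 24 h. Supernatant RANTES quantified by Eu-labelled sandwich immunoassay (time-resolved fluorescence, ex 340/em 615 nm) against recombinant human RANTES standard.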

Row | Structure (SMILES) | IC50 [µM]
1 | Oc1cccc(OCC2CC2)c1-c1cc(C2CCCNC2)c2c(n1)NCOC2 (stereo not drawn) [Example 17-1, 3-(cyclopropylmethoxy)-2-[5-(3-piperidinyl)-1,4-dihydro-2H-pyrido[2,3-d][1,3]oxazin-7-yl]-phenol hydrochloride] | < 1
2 | O=C1Nc2nc(-c3ccccc3O)cc(C3CCCNC3)c2CO1 (stereo not drawn) [Example 18-2, 7-(2-hydroxyphenyl)-5-(3-piperidinyl)-1,4-dihydro-2H-pyrido[2,3-d][1,3]oxazin-2-one hydrochloride] | < 1
3 | CC1OC(=O)Nc2nc(-c3ccccc3O)cc(C3CCCNC3)c21 (stereo not drawn) [Example 18-3, hydrochloride] | 1 to 10
4 | NC(Cc1ccccc1)c1cc(-c2ccccc2O)nc2c1COC(=O)N2 (stereo not drawn) [Example 18-4/18-5, 5-(1-Amino-2-phenyl-ethyl)-7-(2-hydroxy-phenyl)-1,4-dihydro-pyrido[2,3-d][1,3]oxazin-2-one hydrochloride] | 1 to 10
5 | O=C1Nc2nc(-c3ccccc3O)cc(C3=CCCNC3)c2CO1 [Example 18-6] | < 1
6 | Nc1nc(-c2c(O)cccc2OCc2ccccc2)cc2c1CN1CCCC2C1 (stereo not drawn) [Example 20-1, 2-(6-amino-5,9-diazatricyclo[7.3.1.02,7]trideca-2,4,6-trien-4-yl)-3-(benzyloxy)phenol hydrochloride] | > 10
7 | Nc1nc(-c2ccccc2O)cc2c1CN[C@@H]2Cc1ccccc1 [Example 20-2, 2-[(1R)-4-amino-1-benzyl-2,3-dihydro-1H-pyrrolo[3,4-d]pyridin-6-yl]phenol hydrochloride] | 1 to 10
8 | Nc1nc(-c2c(O)cccc2OCC2CC2)cc(C2CCCNC2)c1CSc1ccccc1 (stereo not drawn) [Example 21-1, 2-[6-amino-5-[(phenylsulfanyl)methyl]-4-(3-piperidinyl)-2-pyridinyl]-3-(cyclopropylmethoxy)phenol hydrochloride] | 1 to 10
9 | Nc1nc(-c2c(O)cccc2OCC2CC2)cc(C2CCNCC2)c1Cn1ccnc1 [Example 21-2, 2-[6-amino-5-(1H-imidazol-1-ylmethyl)-4-(4-piperidinyl)-2-pyridinyl]-3-(cyclopropylmethoxy)phenol hydrochloride] | < 1
10 | Nc1nc(-c2c(O)cccc2OCC2CC2)cc(C2CCNCC2)c1COc1ccccc1 [Example 21-3, 2-[6-amino-5-(phenoxymethyl)-4-(4-piperidinyl)-2-pyridinyl]-3-(cyclopropylmethoxy)phenol hydrochloride] | < 1
11 | Nc1nc(-c2c(O)cccc2OCC2CC2)cc(C2CCNCC2)c1CON1C(=O)CCC1=O [Example 21-4, 1-{[2-amino-6-[2-(cyclopropylmethoxy)-6-hydroxyphenyl]-4-(4-piperidinyl)-3-pyridinyl]methoxy}-2,5-pyrrolidinedione hydrochloride] | < 1
12 | O=C1NCc2c(C3CCCNC3)cc(-c3ccccc3O)nc2N1 (stereo not drawn) [Example 22-1, 7-(2-hydroxyphenyl)-5-(3-piperidinyl)-3,4-dihydropyrido[2,3-d]pyrimidin-2(1H)-one hydrochloride] | 1 to 10
13 | O=C1NCc2c(C3CCCNC3)cc(-c3c(O)cccc3OCC3CC3)nc2N1 (stereo not drawn) [Example 22-2, 7-[2-(cyclopropylmethoxy)-6-hydroxyphenyl]-5-(3-piperidinyl)-3,4-dihydro-1H-pyrido[2,3-d]-pyrimidin-2-one hydrochloride] | < 1
14 | O=C1NCc2c(C3CCNCC3)cc(-c3c(O)cccc3OCC3CC3)nc2N1 [Example 22-3, 7-[2-(cyclopropylmethoxy)-6-hydroxyphenyl]-5-(4-piperidinyl)-3,4-dihydro-1H-pyrido[2,3-d]pyrimidin-2-one hydrochloride] | < 1
15 | O=S1(=O)NCc2c(C3CCCNC3)cc(-c3ccccc3O)nc2N1 (stereo not drawn) [Example 22-5, 2-[2,2-dioxido-5-(3-piperidinyl)-3,4-dihydro-1H-pyrido[2,3-c][1,2,6]thiadiazin-7-yl]phenol hydrochloride] | 1 to 10
16 | CC(=O)NCc1c(C2CCCNC2)cc(-c2c(O)cccc2OCC2CC2)nc1N (stereo not drawn) [Example 23-1, N-{[2-amino-6-[2-(cyclopropylmethoxy)-6-hydroxyphenyl]-4-(3-piperidinyl)-3-pyridinyl]methyl}acetamide hydrochoride] | < 1
17 | CCOC(=O)NCc1c(C2CCCNC2)cc(-c2c(O)cccc2OCC2CC2)nc1N (stereo not drawn) [Example 23-2, ethyl [2-amino-6-[2-(cyclopropylmethoxy)-6-hydroxyphenyl]-4-(3-piperidinyl)-3-pyridinyl]methylcarbamate hydrochloride] | < 1

Row | Structure (SMILES) | IC50 [µM]
18 | Nc1nc(-c2c(O)cccc2OCC2CC2)cc(C2CCCNC2)c1CNC(=O)NC1CCCCC1 (stereo not drawn) [Example 23-3, N-{[2-amino-6-[2-(cyclopropylmethoxy)-6-hydroxyphenyl]-4-(3-piperidinyl)-3-pyridinyl]methyl}-N′-cyclohexylurea hydrochloride] | < 1
19 | CC(=O)N1Cc2c(C3CCCNC3)cc(-c3c(O)cccc3OCC3CC3)nc2NC1=O (stereo not drawn) [Example 24-1, 3-acetyl-7-[2-(cyclopropylmethoxy)-6-hydroxyphenyl]-5-(3-piperidinyl)-3,4-dihydropyrido[2,3-d]pyrimidin-2(1H)-one hydrochloride] | < 1
20 | Oc1cccc(OCC2CC2)c1-c1cc(C2CCCNC2)c2c(n1)NCCC2 (stereo not drawn) [Example 28-01, 3-(cyclopropylmethoxy)-2-[4-(3-piperidinyl)-5,6,7,8-tetrahydro-1,8-naphthyridin-2-yl]phenol] | < 1
21 | Nc1cc2c(C3CCCNC3)cc(-c3c(O)cccc3OCC3CC3)nc2[nH]c1=O (stereo not drawn) [Example 29-01, 3-amino-7-[2-(cyclopropylmethoxy)-6-hydroxyphenyl]-5-(3-piperidinyl)-1,8-naphthyridin-2(1H)-one hydrochloride] | < 1
22 | O=C(Nc1cc2c(C3CCCNC3)cc(-c3c(O)cccc3OCC3CC3)nc2[nH]c1=O)c1ccccc1 (stereo not drawn) [Example 29-2, N-[7-[2-(cyclopropylmethoxy)-6-hydroxyphenyl]-2-oxo-5-(3-piperidinyl)-1,2-dihydro-1,8-naphthyridin-3-yl]benzamide hydrochloride] | 1 to 10
23 | CC(=O)Nc1cc2c(C3CCCNC3)cc(-c3c(O)cccc3OCC3CC3)nc2[nH]c1=O (stereo not drawn) [Example 29-3, N-[7-[2-(cyclopropylmethoxy)-6-hydroxyphenyl]-2-oxo-5-(3-piperidinyl)-1,2-dihydro-1,8-naphthyridin-3-yl]acetamide hydrochloride] | < 1
24 | O=C(O)c1cc2c(C3CCCNC3)cc(-c3c(O)cccc3OCC3CC3)nc2[nH]c1=O (stereo not drawn) [Example 30-1, 7-(2-cyclopropylmethoxy-6-hydroxy-phenyl)-2-oxo-5-piperidin-3-yl-1,2-dihydro[1,8]naphthyridine-3-carboxylic acid hydrochloride] | 1 to 10
25 | CCCNC(=O)c1cc2c(C3CCCNC3)cc(-c3c(O)cccc3OCC3CC3)nc2[nH]c1=O (stereo not drawn) [Example 31-1, 7-[2-(cyclopropylmethoxy)-6-hydroxyphenyl]-2-oxo-5-(3-pipedinyl)-N-propyl-1,2-dihydro-1,8-naphthyridine-3-carboxamide] | < 1
26 | CS(=O)(=O)NC(=O)c1cc2c(C3CCCNC3)cc(-c3c(O)cccc3OCC3CC3)nc2[nH]c1=O (stereo not drawn) [Example 31-2, N-{[7-[2-(cyclopropylmethoxy)-6-hydroxyphenyl]-2-oxo-5-(3-piperidinyl)-1,2-dihydro-1,8-naphthyridin-3-yl]carbonyl}methanesulfonamide hydrochloride] | 1 to 10
27 | Nc1ncnc2nc(-c3c(O)cccc3OCC3CC3)cc(C3CCCNC3)c12 (stereo not drawn) [Example 32-1, 2-[4-amino-5-(3-piperidinyl)pyrido[2,3-d]pyrimidin-7-yl]-3-(cyclopropylmethoxy)phenol hydrochloride] | 1 to 10
28 | N#Cc1ccc(-c2ccccc2O)nc1N [Example 33-1, 2-amino-6-(2-hydroxyphenyl)nicotinonitrile] | 1 to 10
29 | N#Cc1c(N2CCOCC2)cc(-c2ccccc2O)nc1N [Example 34-1, 2-amino-6-(2-hydroxyphenyl)-4-(4-morpholinyl)nicotinonitrile] | > 10
30 | N#Cc1c(N2CCC(C(N)=O)CC2)cc(-c2ccccc2O)nc1N [Example 34-2, 1-[2-amino-3-cyano-6-(2-hydroxyphenyl)-4-pyridinyl]-4-piperidinecarboxamide] | > 10
31 | N#Cc1c(N2CCCC(N)C2)cc(-c2ccccc2O)nc1N (stereo not drawn) [Example 34-3, 2-amino-4-(3-amino-1-piperidinyl)-6-(2-hydroxyphenyl)nicotinonitrile hydrochloride] | 1 to 10
32 | N#Cc1c(NC2CCCNC2)cc(-c2ccccc2O)nc1N (stereo not drawn) [Example 34-4, 2-amino-6-(2-hydroxyphenyl)-4-(3-piperidinylamino)nicotinonitrile hydrochloride] | < 1
33 | NCCNc1cc(-c2c(O)cccc2OCC2CC2)nc2c1COC(=O)N2 [Example 35-1, 5-[(2-aminoethyl)amino]-7-[2-(cyclopropylmethoxy)-6-hydroxyphenyl]-1,4-dihydro-2H-pyrido[2,3-d][1,3]oxazin-2-one hydrochloride] | < 1
